In US6344464B1, “Use of tetrahydropyridine derivatives to prepare medicines for treating diseases causing demyelination” (Sanofi-Synthelabo, priority 1997, dated 2002):
Structures can show the parent of a compound that is named as a salt.

What was measured:
[1] = tested on: experimental allergic encephalitis (EAE); experiment: experimental allergic encephalitis (EAE) model induced by intraplantar myelin basic protein (fragment 68-84) in Freund's complete adjuvant; format: in vivo; details: EAE in Lewis rats, administered orally from day zero of induction
Source text: The activity of the compounds of formula (I) was investigated in the model of experimental allergic encephalitis (EAE) induced in Lewis rats by the intraplantar administration of myelin basic protein (MBP) (fragment 68-84) in a Freund's complete adjuvant (FCA) enriched in Mycobacterium tuberculosis, according to the protocol published by Martin and Near (Journal of Neuroimmunology, 1995, 241-245).
EAE is an inflammatory autoimmune disease of the central nervous system which presents demyelinating lesions reminiscent of human multiple sclerosis.

Row | Structure (SMILES) | melting point | severity of the disease (paralysis of the back paws) [1] | weight loss of the treated animals ([1]; compared with animals treated with the vehicle only)
1 | FC(F)(F)c1cccc(C2=CCN(CC(c3ccccc3)c3ccccc3)CC2)c1 (as salt: hydrochloride) | 207 to 210 °C | – | –
2 | CCCCCc1ccc(CCN2CC=C(c3cccc(C(F)(F)F)c3)CC2)cc1C (as salt: oxalate) | 140 to 143 °C | – | –
3 | Cl.FC(F)(F)c1cccc(C2=CCN(CCc3ccc4ccccc4c3)CC2)c1 [1-(2-naphth-2-ylethyl)-4-(3-trifluoromethylphenyl)-1,2,3,6-tetrahydropyridine hydrochloride] | – | statistically less severe | significantly lower
